Measurements: US20260347322A1, “BETA ADRENERGIC AGONIST AND METHODS OF USING THE SAME” (CuraSen Therapeutics, Inc., priority 2019, published 2026)

Experiments:
Assay type in all cases: cell-based
[1] = tested on: Endogenous beta-adrenergic receptor, 1321N1 cells; assay: cAMP homogeneous time-resolved fluorescence (HTRF) assay, endogenous receptor; settings: 30 min, 37 °C
Description: (§1) CAMP homogeneous time-resolved fluorescence (HTRF): experimental methods. Compound efficacy is determined using the CAMP Gs dynamic HTRF assay (Cisbio, catalog #62AM4PEC) largely following the manufacturer's instructions, also detailed below.
Compound Preparation: Candidate beta-adrenergic compounds, dissolved to 10 mM in DMSO, are diluted in 1× stimulation buffer 1 (Cisbio Part #64Sβ1FDD) containing 1 mM 3-Isobutyl-1-methylxanthene (IBMX; Cayman Chemical Company, catalog #13347). Serial dilutions are made in a 96 well V-bottom polypropylene compound microplate (Corning, catalog #3363) in stimulation buffer containing 1 mM IBMX, to 2× of the final desired concentration. Standard serial dilution curves are 10-point, 5-fold dilutions starting from a highest concentration of 10 μM. Controls present on every assay plate are 0.1% DMSO (vehicle control), 1 μM isoproterenol (full beta-adrenergic agonist control) and 15 μM xamoterol (partial beta-adrenergic agonist control). 5 μL from the 2× compound plate is stamped into a white 384 round well small volume HiBase assay plate (Greiner Bio-One; catalog #784075) to provide 4 technical replicates per concentration, per compound. Assay plates are centrifuged at 500×g for 10 seconds. Compounds and IBMX are prepared at 2× final dose to compensate for addition of cells.
Cell Preparation: 1× stimulation buffer, washing PBS (Dulbecco's phosphate-buffered saline, —Mg—Ca; Caisson Labs, catalog #PBL01), assay PBS (Dulbecco's phosphate-buffered saline, +Mg, +Ca; Caisson Labs, catalog #PBL02) and Versene (0.02% EDTA disodium salt solution in PBS without calcium or magnesium; Caisson Labs, catalog #EDL01) are pre-warmed to 37 °C Cells expressing beta-adrenergic receptor were washed in washing PBS to remove growth medium and then released from the surface by incubating with Versene for 5-10 minutes at 37 °C. Cells are harvested using assay PBS, counted manually by hemocytometer or by an automated cell counter, pelleted by centrifugation (200×g, 5 minutes) and resuspended in 37 °C. 1× stimulation buffer to a final density of 1.5×10^6 cells/mL. […]
HTRF Reagent Addition, Reading and Data Analysis: After 30 minutes of cell stimulation with test compound, the assay plates are centrifuged at 500×g for 10 seconds, and incubation was stopped with the addition of 5 μL cAMP-D2 acceptor, diluted 1:21 in detection and lysis buffer 2 (Cisbio 62CL2FDF) was added to all cells. […] Plates are centrifuged again at 500×g for 10 seconds, and HTRF was measured using a Tecan Spark plate reader at 50 flashes per well. HTRF ratios (665 nm/620 nm×10,000) are determined and plotted in GraphPad Prism to generate a concentration-effect curve. […]

[2] = target: T1, B2-AR (β2 adrenergic receptor) (Homo sapiens, UniProt P07550); assay: cAMP homogeneous time-resolved fluorescence (HTRF) assay, β2
T1 construct: expressed in transfected cells
Description: as §1
(§2) Standard serial dilution curves are 10-point, 5-fold dilutions starting from a highest concentration of 10 μM. […] Assay plates are centrifuged at 500×g for 10 seconds. Compounds and IBMX are prepared at 2× final dose to compensate for addition of cells. […]
(§3) Subsequently, 5 μL Anti-cAMP-Eu Donor, diluted 1:21 in detection and lysis buffer 2, was added to cells. […] Plates are centrifuged again at 500×g for 10 seconds, and HTRF was measured using a Tecan Spark plate reader at 50 flashes per well. […] Potency estimates (EC50 and pEC50) are derived from the four-parameter nonlinear regression of the concentration-effect curve and an estimate of relative efficacy is determined by comparing the magnitude of the test compound HTRF signal window (min-max dose) with the signal window of the full agonist control, isoproterenol.

[3] = target: T2, B1-AR (β1 adrenergic receptor) (Homo sapiens, UniProt P08588); assay: cAMP homogeneous time-resolved fluorescence (HTRF) assay, β1
T2 construct: expressed in transfected cells
Description: as §1, §2, §3

T2 sequence (P08588 whole entry): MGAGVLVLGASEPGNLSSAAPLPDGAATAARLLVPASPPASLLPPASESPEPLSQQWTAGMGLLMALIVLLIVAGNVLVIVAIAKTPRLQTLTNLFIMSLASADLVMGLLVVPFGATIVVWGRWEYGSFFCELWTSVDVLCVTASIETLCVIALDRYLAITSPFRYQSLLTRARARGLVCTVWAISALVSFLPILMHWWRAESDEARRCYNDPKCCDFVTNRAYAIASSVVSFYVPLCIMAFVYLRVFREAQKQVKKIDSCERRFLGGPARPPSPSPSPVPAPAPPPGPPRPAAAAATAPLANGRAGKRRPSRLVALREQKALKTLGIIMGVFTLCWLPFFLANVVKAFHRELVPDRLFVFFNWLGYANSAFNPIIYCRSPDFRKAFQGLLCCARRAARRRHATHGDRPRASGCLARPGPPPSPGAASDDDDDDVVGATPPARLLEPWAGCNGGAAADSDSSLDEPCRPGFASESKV
T1 sequence (P07550 whole entry): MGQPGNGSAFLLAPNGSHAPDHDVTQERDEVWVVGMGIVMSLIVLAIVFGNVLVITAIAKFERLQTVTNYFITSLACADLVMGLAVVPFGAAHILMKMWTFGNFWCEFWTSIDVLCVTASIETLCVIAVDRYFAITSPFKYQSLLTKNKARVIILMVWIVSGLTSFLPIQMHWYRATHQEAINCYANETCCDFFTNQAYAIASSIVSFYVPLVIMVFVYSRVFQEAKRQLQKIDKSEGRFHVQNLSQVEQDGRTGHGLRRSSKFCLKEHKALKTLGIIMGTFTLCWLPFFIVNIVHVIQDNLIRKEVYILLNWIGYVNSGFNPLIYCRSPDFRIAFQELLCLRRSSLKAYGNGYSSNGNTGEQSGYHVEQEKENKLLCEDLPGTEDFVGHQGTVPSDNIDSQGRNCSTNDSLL

`CC(C)(C)NC[C@H](O)c1cccc(O)n1` [Compound 02-7] was tested, and the “Average pEC50 [Receptor subtype: Endogenous; Cell type: 1321N1]” value (shortened to “Average pEC50”) [1] was “D (D < 6)”.

With `CC(C)(C)NC[C@H](O)c1cnc(N)c(Cl)c1` [Compound 02-1] the “Average pEC50” value [1] was “C (C =< 7-6)”.

In the case of `CC(C)(C)NC[C@@H](O)c1cccc(O)n1` [Compound 02-8], the “Average pEC50” value [1] is reported as “D (D < 6)”.

With `CC(C)(C)NC[C@@H](O)c1cccc(N)n1` [Compound 02-6] the “Average pEC50” value [1] was “C (C =< 7-6)”.

`CC(C)(C)NC[C@H](O)c1cncc2[nH]ncc12` [Compound 04-153] was tested, and the EC50 [2] was 0.01 to 0.1 µM and the EC50 [3] was > 1 µM.
